Assay results from ChEMBL document CHEMBL3621068, “Synthesis and biological evaluation of a new class of quinazolinoneazoles as potential antimicrobial agents and their interactions with calf thymus DNA and human serum albumin” (Medchemcomm, 2015).

Assays:
Assay type in all cases: functional
[1] = test system: Staphylococcus aureus; assay: Antibacterial activity against Staphylococcus aureus ATCC 25923 after 24 hrs by micro broth dilution assay; conditions: ATCC 25923, 24 h
[2] = test system: Staphylococcus aureus; assay: Antibacterial activity against methicillin-resistant Staphylococcus aureus N315 after 24 hrs by micro broth dilution assay; conditions: N315, 24 h
[3] = test system: Saccharomyces cerevisiae; assay: Antifungal activity against Beer yeast ATCC 9763 after 24 hrs by micro broth dilution assay; conditions: ATCC 9763, 24 h
[4] = test system: Bacillus spizizenii; assay: Antibacterial activity against Bacillus subtilis ATCC 6633 after 24 hrs by micro broth dilution assay; conditions: ATCC 6633, 24 h
[5] = test system: Aspergillus flavus; assay: Antifungal activity against Aspergillus flavus ATCC 204304 after 24 hrs by micro broth dilution assay; conditions: ATCC 204304, 24 h
[6] = test system: Candida albicans; assay: Antifungal activity against Candida albicans ATCC 10231 after 24 hrs by micro broth dilution assay; conditions: ATCC 10231, 24 h
[7] = Antibacterial activity against Eberthella typhosa ATCC 14028 after 24 hrs by micro broth dilution assay; conditions: ATCC 14028, 24 h
[8] = test system: Escherichia coli; assay: Antibacterial activity against Escherichia coli DH52 after 24 hrs by micro broth dilution assay; conditions: DH52, 24 h
[9] = test system: Candida; assay: Antifungal activity against Candida mycoderma ATCC 9888 after 24 hrs by micro broth dilution assay; conditions: ATCC 9888, 24 h
[10] = test system: Micrococcus luteus; assay: Antibacterial activity against Micrococcus luteus ATCC 4698 after 24 hrs by micro broth dilution assay; conditions: ATCC 4698, 24 h
[11] = test system: Bacillus sp.; assay: Antibacterial activity against Bacillus proteus ATCC 13315 after 24 hrs by micro broth dilution assay; conditions: Bacillus sp. (in: firmicutes), ATCC 13315, 24 h
[12] = test system: Cyberlindnera jadinii; assay: Antifungal activity against Candida utilis ATCC 9950 after 24 hrs by micro broth dilution assay; conditions: Williopsis jadinii, ATCC 9950, 24 h
[13] = test system: Pseudomonas aeruginosa; assay: Antibacterial activity against Pseudomonas aeruginosa ATCC 27853 a after 24 hrs by micro broth dilution assay; conditions: ATCC 27853, 24 h

Measured: MIC

O=c1c2ccc(Cl)cc2ncn1CCn1ccnc1
1860 µM: [8] | [11]
> 1860 µM: [1] | [4] | [7] | [9]
470 µM: [10] | [12]
930 µM: [2] | [3] | [5] | [6] | [13]

Cc1ncc([N+](=O)[O-])n1CCCCCCCCCCn1cnc2cc(F)ccc2c1=O
> 1190 µM: [13]
40 µM: [5] | [6] | [10]
20 µM: [1] | [2] | [3] | [4] | [7] | [8] | [9] | [11] | [12]

O=c1c2ccc(F)cc2ncn1CCCCCCBr
780 µM: [3] | [6] | [8]
> 1560 µM: [1] | [7] | [9] | [13]
1560 µM: [4] | [5]
390 µM: [2] | [10] | [11] | [12]

Cc1ncc([N+](=O)[O-])n1CCCCCCCCCCn1cnc2cc(Cl)ccc2c1=O
40 µM: [2] | [3] | [9]
> 1150 µM: [13]
20 µM: [1] | [4] | [5] | [6] | [7] | [8] | [10] | [11] | [12]

O=c1c2ccc(F)cc2ncn1CCn1cncn1
250 µM: [8]
490 µM: [2] | [3] | [4] | [9]
30 µM: [10] | [13]
990 µM: [1] | [5] | [6] | [7] | [11] | [12]

O=c1c2ccc(F)cc2ncn1CCCCCBr
1630 µM: [4] | [8]
> 1630 µM: [1] | [7] | [9] | [13]
820 µM: [2] | [3] | [5] | [6]
410 µM: [10] | [11] | [12]

Cc1ncc([N+](=O)[O-])n1CCCCn1cnc2cc(Cl)ccc2c1=O
> 1420 µM: [13]
20 µM: [2] | [6] | [7] | [11] | [12]
40 µM: [1] | [3] | [4] | [5] | [8] | [9] | [10]

O=c1c2ccc(Cl)cc2ncn1CCCCCCn1cnc([N+](=O)[O-])c1
170 µM: [2] | [5] | [8]
340 µM: [1] | [7] | [12] | [13]
40 µM: [4] | [6] | [9] | [10]
90 µM: [3] | [11]

OC(Cn1cncn1)(Cn1cncn1)c1ccc(F)cc1F [FLUCONAZOLE]
840 µM: [5]
10 µM: [9]
> 1670 µM: [1] | [2] | [4] | [7] | [8] | [10] | [11] | [13]
< 10 µM: [6]
30 µM: [12]
50 µM: [3]

O=c1c2ccc(F)cc2ncn1CCn1cnc([N+](=O)[O-])c1
50 µM: [4] | [6] | [10]
420 µM: [7] | [11] | [12]
210 µM: [2] | [3]
840 µM: [1] | [8] | [9]
> 1690 µM: [5] | [13]

CCn1cc(C(=O)O)c(=O)c2cc(F)c(N3CCNCC3)cc21 [NORFLOXACIN]
50 µM: [8]
10 µM: [1] | [4] | [7] | [10] | [11] | [13]
> 1600 µM: [3] | [5] | [6] | [9] | [12]
30 µM: [2]

Cc1ncc([N+](=O)[O-])n1CCCCCCn1cnc2cc(Cl)ccc2c1=O
40 µM: [4] | [5] | [8] | [10]
20 µM: [1] | [2] | [3] | [6] | [7] | [9] | [11] | [12]
> 1310 µM: [13]
